{
  "source": "BindingDB's records for doi:10.1021/jm970524i",
  "about": "(Dupont Pharmaceuticals, 1998)",
  "molecular_target": "T1, Dimer of Gag-Pol polyprotein [489-587] (Human immunodeficiency virus 1, UniProt P04585)",
  "T1 construct": "489-587",
  "experiment": "Protease Inhibition Assay",
  "method": "Inhibition of HIV protease was measured by assay of the cleavage of a fluorescent peptide substrate. The fluorescent product (2-aminobenzoyl-Ala-Thr-His-Gln-Val-Tyr) was separated from the fluorescent substrate by anion-exchange HPLC on a Mono-Q anion-exchange column (Pharmacia), and fluorescence was monitored at an excitation wavelength of 330 nm and an emission wavelength of 430 nm. Ki values for inhibitor binding were estimated at fixed concentrations of substrate and inhibitor from fractional activity measurements by use of the modified Michaelis-Menten equation.",
  "data": [
    {"smiles": "O=C1N(Cc2cccc(CO)c2)[C@H](Cc2ccccc2)[C@H](O)[C@@H](O)[C@@H](Cc2ccccc2)N1Cc1cccc(CO)c1", "note": "[(4R,5S,6S,7R)-4,7-dibenzyl-5,6-dihydroxy-1,3-bis({[3-(hydroxymethyl)phenyl]methyl})-1,3-diazepan-2-one]", "values": [
      {"measurement": "Ki", "value": 0.14, "unit": "nM"}
    ]},
    {"smiles": "O=C1N(Cc2ccc(O)cc2)[C@H](Cc2ccccc2)[C@H](O)[C@@H](O)[C@@H](Cc2ccccc2)N1Cc1ccc(O)cc1", "values": [
      {"measurement": "Ki", "value": 0.12, "unit": "nM"}
    ]},
    {"smiles": "O=C1N(Cc2cccc([N+](=O)[O-])c2)[C@H](Cc2ccccc2)[C@H](O)[C@@H](O)[C@@H](Cc2ccccc2)N1Cc1cccc([N+](=O)[O-])c1", "values": [
      {"measurement": "Ki", "value": 2.8, "unit": "nM"}
    ]},
    {"smiles": "NC(=O)NC1=N[C@H](Cc2ccccc2)[C@H](O)[C@@H](O)[C@@H](Cc2ccccc2)N1", "note": "[[4R-(4a,5a,6B,7B)]-[Hexahydro-5,6-dihydroxy-4,7-bis(phenylmethyl)-2H-1,3-diazepin-2-ylidene]urea]", "values": [
      {"measurement": "Ki", "setting": "pH 5.5, 37 °C", "value": "> 12500", "unit": "nM"}
    ]},
    {"smiles": "O=C1N(Cc2cccc(O)c2)[C@H](Cc2ccccc2)[C@H](O)[C@@H](O)[C@@H](Cc2ccccc2)N1Cc1cccc(O)c1", "values": [
      {"measurement": "Ki", "value": 0.12, "unit": "nM"}
    ]}
  ]
}
